These results are taken from patent publication US10696655B2, “Therapeutic compounds and uses thereof” (GENENTECH, INC., priority 2017, dated 2020).

pIC50: −log10 of the molar value.

For the first assay, the target named is CBP (Homo sapiens (Human), UniProt Q92793). Kind of assay: CBP TR-FRET binding assay.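 Also: displacement of a biotinylated small-molecule ligand from purified recombinant CBP read by TR-FRET, DMSO-only wells as control, IC50 from nonlinear curve fit.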 The conditions noted are these: His/Flag tagged CBP 4 nM, biotin-ligand 60 nM; read-out: CBP HTRF IC50.
CBP, sequence (Q92793 whole entry): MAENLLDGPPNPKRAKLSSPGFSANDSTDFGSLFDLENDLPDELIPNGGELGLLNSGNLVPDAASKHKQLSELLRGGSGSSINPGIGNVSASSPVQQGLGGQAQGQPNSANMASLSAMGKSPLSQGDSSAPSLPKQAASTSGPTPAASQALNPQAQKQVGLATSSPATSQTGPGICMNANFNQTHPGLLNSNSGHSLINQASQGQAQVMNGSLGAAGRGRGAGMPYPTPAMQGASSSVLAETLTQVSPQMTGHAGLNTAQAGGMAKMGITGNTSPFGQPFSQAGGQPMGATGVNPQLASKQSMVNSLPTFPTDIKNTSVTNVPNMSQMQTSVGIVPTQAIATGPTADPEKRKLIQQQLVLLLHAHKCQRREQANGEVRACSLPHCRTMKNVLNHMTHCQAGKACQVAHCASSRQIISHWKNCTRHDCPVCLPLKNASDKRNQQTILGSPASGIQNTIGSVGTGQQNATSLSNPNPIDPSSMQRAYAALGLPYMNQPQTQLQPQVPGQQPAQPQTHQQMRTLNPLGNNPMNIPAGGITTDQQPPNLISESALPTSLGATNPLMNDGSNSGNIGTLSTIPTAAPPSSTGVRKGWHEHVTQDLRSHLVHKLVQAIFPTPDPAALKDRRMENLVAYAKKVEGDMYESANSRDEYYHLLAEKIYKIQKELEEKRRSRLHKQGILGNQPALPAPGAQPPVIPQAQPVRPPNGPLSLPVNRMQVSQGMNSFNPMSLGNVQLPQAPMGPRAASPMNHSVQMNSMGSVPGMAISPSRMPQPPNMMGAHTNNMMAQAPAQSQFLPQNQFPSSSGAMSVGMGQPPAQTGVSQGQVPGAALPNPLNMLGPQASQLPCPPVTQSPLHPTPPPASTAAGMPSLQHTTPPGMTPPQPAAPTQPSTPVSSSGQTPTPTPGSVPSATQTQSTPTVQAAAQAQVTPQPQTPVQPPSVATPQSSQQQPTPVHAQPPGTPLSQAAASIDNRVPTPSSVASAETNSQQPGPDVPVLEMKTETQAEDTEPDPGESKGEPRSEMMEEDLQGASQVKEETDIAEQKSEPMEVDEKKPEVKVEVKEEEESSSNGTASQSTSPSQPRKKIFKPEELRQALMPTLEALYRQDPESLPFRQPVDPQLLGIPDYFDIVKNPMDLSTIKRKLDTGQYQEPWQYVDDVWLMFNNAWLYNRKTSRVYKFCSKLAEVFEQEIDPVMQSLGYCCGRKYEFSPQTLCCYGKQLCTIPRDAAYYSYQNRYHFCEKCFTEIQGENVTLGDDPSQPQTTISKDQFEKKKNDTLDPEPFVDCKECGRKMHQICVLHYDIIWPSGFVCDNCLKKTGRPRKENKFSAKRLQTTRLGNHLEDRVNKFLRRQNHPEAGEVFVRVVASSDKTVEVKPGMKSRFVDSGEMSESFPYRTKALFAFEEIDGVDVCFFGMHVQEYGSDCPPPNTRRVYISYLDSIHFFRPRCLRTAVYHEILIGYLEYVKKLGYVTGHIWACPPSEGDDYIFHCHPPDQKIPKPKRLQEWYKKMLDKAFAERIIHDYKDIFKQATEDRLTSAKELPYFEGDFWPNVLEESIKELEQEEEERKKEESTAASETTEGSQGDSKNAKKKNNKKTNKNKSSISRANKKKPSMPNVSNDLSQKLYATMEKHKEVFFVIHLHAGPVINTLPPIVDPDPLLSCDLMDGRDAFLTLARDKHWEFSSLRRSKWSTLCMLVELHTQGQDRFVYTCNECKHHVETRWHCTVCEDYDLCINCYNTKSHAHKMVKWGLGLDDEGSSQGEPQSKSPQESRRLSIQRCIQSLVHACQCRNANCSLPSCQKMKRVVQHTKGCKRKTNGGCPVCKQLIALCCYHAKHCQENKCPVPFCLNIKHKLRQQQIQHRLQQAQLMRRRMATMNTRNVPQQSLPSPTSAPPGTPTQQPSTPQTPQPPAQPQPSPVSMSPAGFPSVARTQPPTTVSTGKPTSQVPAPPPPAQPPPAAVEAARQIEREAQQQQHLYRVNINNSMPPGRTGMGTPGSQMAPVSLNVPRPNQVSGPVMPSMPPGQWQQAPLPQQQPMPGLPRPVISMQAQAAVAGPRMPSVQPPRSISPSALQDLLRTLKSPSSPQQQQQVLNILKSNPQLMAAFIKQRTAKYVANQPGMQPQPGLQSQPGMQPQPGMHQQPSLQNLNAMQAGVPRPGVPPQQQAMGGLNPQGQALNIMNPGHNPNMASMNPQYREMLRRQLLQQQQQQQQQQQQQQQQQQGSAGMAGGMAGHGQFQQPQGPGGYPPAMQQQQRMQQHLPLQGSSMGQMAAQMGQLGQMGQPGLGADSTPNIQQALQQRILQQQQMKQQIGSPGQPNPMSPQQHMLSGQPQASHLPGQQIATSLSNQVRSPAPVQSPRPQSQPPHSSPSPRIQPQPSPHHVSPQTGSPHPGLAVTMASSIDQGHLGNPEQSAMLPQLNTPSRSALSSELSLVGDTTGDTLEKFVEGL
Description: IC50 Measurements for Inhibitors Using CBP TR FRET Binding Assay
His/Flag epitope tagged CBP was cloned, expressed, and purified to homogeneity. CBP binding and inhibition was assessed by monitoring the engagement of a biotinylated small molecule compound with the target using the TR-FRET assay technology (Perkin-Elmer). Specifically, in a 384 well ProxiPlate CBP (4 nM final) was combined with biotin-ligand (60 nM final) in 50 mM HEPES (pH 7.5), 50 mM NaCl, 1 mM TCEP, 0.01% (w/v) BSA, and 0.008% (w/v) Brij-35 either in the presence of DMSO (final 0.2% DMSO) or compound dilution series in DMSO. […] After twenty minutes of equilibration, the plates were read on an Envision instrument and IC50S calculated using a four parameter non-linear curve fit.
For `CNC(=O)c1cn(C)c2c(Cl)cc(N3CCCc4cc(-c5cnn(C)c5)c(C(F)F)cc43)cc12` [Example 54, 7-chloro-5-(7-(difluoromethyl)-6-(1-methyl-1H-pyrazol-4-yl)-3,4-dihydroquinolin-1(2H)-yl)-N,1-dimethyl-1H-indole-3-carboxamide], the pIC50 (commonly the IC50 on a negative log10 scale, so that one unit is a factor of ten) was 7.23.

Consider `Cn1cc(-c2cc3c(cc2C(F)F)N(c2cc(C4CCC4)c4c(c2)n(C)c(=O)n4C)CCC3)cn1` [Example 39], for which the pIC50 is 7.92.

With `Cc1cc(N2CCCc3cc(-c4cnn(C)c4)c(C(F)F)cc32)cc2c1n(C)c(=O)n2C` [Example 36, 6-(7-(difluoromethyl)-6-(1-methyl-1H-pyrazol-4-yl)-3,4-dihydroquinolin-1(2H)-yl)-1,3,4-trimethyl-1H-benzo[d]imidazol-2(3H)-one], the pIC50 was 7.85.

For the molecule `CNC(=O)c1cn(C)c2c(C(C)C)cc(N3CCCc4cc(-c5cnn(C)c5)c(C(F)F)cc43)cc12` [Example 108, 5-(7-(difluoromethyl)-6-(1-methyl-1H-pyrazol-4-yl)-3,4-dihydroquinolin-1(2H)-yl)-7-isopropyl-N,1-dimethyl-1H-indole-3-carboxamide], the pIC50 was 7.51.

For the molecule `Cn1cc(-c2cc3c(cc2C(F)F)N(c2cc(Cl)c4c(c2)n(C)c(=O)n4C)CCC3)cn1` [Example 33, 4-chloro-6-(7-(difluoromethyl)-6-(1-methyl-1H-pyrazol-4-yl)-3,4-dihydroquinolin-1(2H)-yl)-1,3-dimethyl-1H-benzo[d]imidazol-2(3H)-one], the pIC50 was 7.38.

`Cc1c(N2CCCc3cc(-c4cnn(C)c4)c(C(F)F)cc32)ccc2c1n(C)c(=O)n2C` [Example 40]: the pIC50 was 7.14.

`CNC(=O)c1c[nH]c2ccc(N3CCCc4cc(-c5cnn(C)c5)c(C(F)F)cc43)cc12` [Example 52, 5-(7-(difluoromethyl)-6-(1-methyl-1H-pyrazol-4-yl)-3,4-dihydroquinolin-1(2H)-yl)-N-methyl-1H-indole-3-carboxamide]: the pIC50 was 8.05.

For `CNC(=O)c1ccc2c(n1)c(N1CCCc3cc(-c4cnn(C)c4)c(C(F)F)cc31)nn2C1CCOCC1` [Example 125, 3-(7-(difluoromethyl)-6-(1-methyl-1H-pyrazol-4-yl)-3,4-dihydroquinolin-1(2H)-yl)-N-methyl-1-(tetrahydro-2H-pyran-4-yl)-1H-pyrazolo[4,3-b]pyridine-5-carboxamide], the pIC50 was 8.70.

For `COC(=O)c1ccc2nccc(N3CCCc4cc(-c5cnn(C)c5)ccc43)c2c1` [Example 28], the pIC50 is 6.70.

For the molecule `CNC(=O)N1CCOc2ccc(-c3nc(N)cc4cnccc34)cc2C1` [Example 2], the pIC50 was 6.49.

Turning to `CNC(=O)c1ccc2c(c1)c(N1CCCc3cc(-c4cnn(C)c4)ccc31)nn2C1CCOCC1` [Example 84], the pIC50 is 7.06.

Take `CNC(=O)N1CCOc2ccc(-c3cncc4ccccc34)cc2C1` [Example 11]: the pIC50 was 6.55.

On to `CNc1cc(N2CCCc3cc(-c4cnn(C)c4)c(C(F)F)cc32)cc2c1n(C)c(=O)n2C` [Example 42], for which the pIC50 is 7.72.

As for `CNC(=O)N1CCOc2c(cc(-c3ccccc3C)cc2C(C)C)C1` [Example 110, 9-isopropyl-N-methyl-7-(o-tolyl)-2,3-dihydrobenzo[f][1,4]oxazepine-4(5H)-carboxamide], the pIC50 was 6.70.

Take `CNC(=O)N1CCOc2ccc(-c3ccc4[nH]ccc4c3)cc2C1` [Example 13]: the pIC50 was 6.57.

As for `CN1C(=O)C(C)(C)c2ccc(N3CCCc4cc(-c5cnn(C)c5)c(C(F)F)cc43)cc21` [Example 20], the pIC50 is 5.76.

Consider `CCn1cc(C(=O)NC)c2cc(N3CCCc4cc(-c5cnn(C)c5)c(C(F)F)cc43)ccc21` [Example 51], for which the pIC50 was 7.57.

In the case of `CNC(=O)N1CCOc2ccc(-c3cccc4nc(-c5ccc(OC)cc5)cn34)cc2C1` [Example 86, 7-[2-(4-methoxyphenyl)imidazo[1,2-a]pyridin-5-yl]-N-methyl-3,5-dihydro-2H-1,4-benzoxazepine-4-carboxamide], the pIC50 was 7.09.

As for `CNC(=O)N1CCOc2ccc(-c3c(C)ccc4c3cnn4C)cc2C1` [Example 3, 7-(1,5-dimethylindazol-4-yl)-N-methyl-3,5-dihydro-2H-1,4-benzoxazepine-4-carboxamide], the pIC50 is 7.24.

With `Cn1cc(-c2cc3c(cc2C(F)F)N(c2ccc4c(c2)sc(=O)n4C)CCC3)cn1` [Example 22], the pIC50 was 5.77.

On to `CNC(=O)Nc1cccc(N2CCCc3cc(-c4cnn(C)c4)c(C(F)F)cc32)n1` [Example 122, 1-(6-(7-(difluoromethyl)-6-(1-methyl-1H-pyrazol-4-yl)-3,4-dihydroquinolin-1(2H)-yl)pyridin-2-yl)-3-methylurea], for which the pIC50 is 7.06.

For the molecule `CNC(=O)c1cnn2ccc(N3CCCc4cc(-c5cnn(C)c5)c(C(F)F)cc43)cc12` [Example 30], the pIC50 was 6.27.

Consider `CNC(=O)N1CCOc2ccc(-c3cccc4ncccc34)cc2C1` [Example 6], for which the negative logarithm of the IC50 (pIC50) is 6.44.

Consider `CNC(=O)[C@@H]1CCc2ccc(N3CCCc4cc(-c5cnn(C)c5)c(C(F)F)cc43)nc21` [Example 118, (R)-2-(7-(difluoromethyl)-6-(1-methyl-1H-pyrazol-4-yl)-3,4-dihydroquinolin-1(2H)-yl)-N-methyl-6,7-dihydro-5H-cyclopenta[b]pyridine-7-carboxamide], for which the pIC50 was 5.49.

Turning to `CN1C(=O)CCc2ccc(N3CCCc4cc(-c5cnn(C)c5)c(C(F)F)cc43)cc21` [Example 19], the pIC50 was 7.48.

As to `C[C@H]1Oc2c(cccc2N2CCCc3cc(-c4cnn(C)c4)c(C(F)F)cc32)NC1=O` [Example 115, (R)-8-(7-(difluoromethyl)-6-(1-methyl-1H-pyrazol-4-yl)-3,4-dihydroquinolin-1(2H)-yl)-2-methyl-2H-benzo[b][1,4]oxazin-3(4H)-one], the pIC50 is 7.11.

For `CNC(=O)N1CCOc2ccc(-c3cccc4cn[nH]c34)cc2C1` [Example 15], the pIC50 was 6.41.

With `CCC(=O)N1CCOc2ccc(N3CCCc4cc(-c5cnn(C)c5)ccc43)cc2C1` [Example 79, 1-(7-(6-(1-methyl-1H-pyrazol-4-yl)-3,4-dihydroquinolin-1(2H)-yl)-2,3-dihydrobenzo[f][1,4]oxazepin-4(5H)-yl)propan-1-one], the pIC50 is 7.11.

For `CNC(=O)N1CCOc2c(cc(-c3ccccc3C)cc2OC)C1` [Example 111, 9-methoxy-N-methyl-7-(o-tolyl)-2,3-dihydrobenzo[f][1,4]oxazepine-4(5H)-carboxamide], the pIC50 is 6.39.

As to `CCCc1cc(N2CCCc3cc(-c4cnn(C)c4)c(C(F)F)cc32)cc2c1n(C)c(=O)n2C` [Example 99, 6-(7-(difluoromethyl)-6-(1-methyl-1H-pyrazol-4-yl)-3,4-dihydroquinolin-1(2H)-yl)-1,3-dimethyl-4-propyl-1H-benzo[d]imidazol-2(3H)-one], the pIC50 is 7.72.

`Cn1cc(-c2ccc3c(c2)CCCN3c2cnc3[nH]cc(-c4cnn(C)c4)c3n2)cn1` [Example 75, 6-(1-methyl-1H-pyrazol-4-yl)-1-(7-(1-methyl-1H-pyrazol-4-yl)-5H-pyrrolo[2,3-b]pyrazin-2-yl)-1,2,3,4-tetrahydroquinoline]: the pIC50 is 6.61.

For `CNC(=O)c1cn(C)c2ccc(-c3cccc4cc(-c5cnn(C)c5)ncc34)cc12` [Example 49], the pIC50 was 7.66.

For the molecule `CNC(=O)N1CCOc2ccc(-c3nccc4ccccc34)cc2C1` [Example 1, 7-(isoquinolin-1-yl)-N-methyl-2,3-dihydrobenzo[f][1,4]oxazepine-4(5H)-carboxamide], the pIC50 was 6.73.

Regarding `CNC(=O)c1cnc2ccc(N3CCCc4cc(-c5cnn(C)c5)c(C(F)F)cc43)nn12` [Example 72, 6-(7-(difluoromethyl)-6-(1-methyl-1H-pyrazol-4-yl)-3,4-dihydroquinolin-1(2H)-yl)-N-methylimidazo[1,2-b]pyridazine-3-carboxamide], the pIC50 was 6.96.

In the case of `CNC(=O)N1CCOc2ccc(-c3cc(C)ccc3C)cc2C1` [Example 7], the pIC50 was 6.56.

Turning to `CNC(=O)N1CCOc2ccc(-c3cccc4c3cnn4C)cc2C1` [Example 10], the pIC50 was 7.02.

As to `C#Cc1cc(N2CCCc3cc(-c4cnn(C)c4)c(C(F)F)cc32)cc2c1n(C)c(=O)n2C` [Example 101, 6-(7-(difluoromethyl)-6-(1-methyl-1H-pyrazol-4-yl)-3,4-dihydroquinolin-1(2H)-yl)-4-ethynyl-1,3-dimethyl-1H-benzo[d]imidazol-2(3H)-one], the pIC50 was 7.92.

For `CNC(=O)N1CCOc2ccc(-c3cccc4nn(C)cc34)cc2C1` [Example 5], the pIC50 is 6.53.

As to `CNC(=O)N1CCOc2ccc(-c3c(C)ccc(-c4cnn(C)c4)c3C(F)F)cc2C1` [Example 76, 7-(2-(difluoromethyl)-6-methyl-3-(1-methyl-1H-pyrazol-4-yl)phenyl)-N-methyl-2,3-dihydrobenzo[f][1,4]oxazepine-4(5H)-carboxamide], the pIC50 is 6.61.

As for `CNC(=O)N1CCOc2ccc(-c3c(C)ccc4[nH]ncc34)cc2C1` [Example 9], the pIC50 is 7.11.

As for `CNC(=O)c1c[nH]c2ccc(N3CCCc4cc(-c5cnn(C)c5)ccc43)cc12` [Example 53], the pIC50 was 7.32.

Turning to `CNC(=O)c1ccc2nccc(N3CCCc4cc(-c5cnn(C)c5)c(C(F)F)cc43)c2c1` [Example 27, 4-[7-(difluoromethyl)-6-(1-methylpyrazol-4-yl)-3,4-dihydro-2H-quinolin-1-yl]-N-methyl-quinoline-6-carboxamide], the pIC50 is 7.47.

Another assay concerns MYC. Kind of assay: MYC RPL19 QuantiGene assay in MV-4-11 cells. The conditions noted are these: Homo sapiens, MV4-11, compound 4 hours. Format: cell-based. An excerpt: MYC RPL19 QuantiGene assay in MV-4-11 Cells
Molecule `CNC(=O)c1cn(C)c2c(Cl)cc(N3CCCc4cc(-c5cnn(C)c5)c(C(F)F)cc43)cc12` [Example 54, 7-chloro-5-(7-(difluoromethyl)-6-(1-methyl-1H-pyrazol-4-yl)-3,4-dihydroquinolin-1(2H)-yl)-N,1-dimethyl-1H-indole-3-carboxamide] had a pIC50 of 5.64.

For `Cn1cc(-c2cc3c(cc2C(F)F)N(c2cc(C4CCC4)c4c(c2)n(C)c(=O)n4C)CCC3)cn1` [Example 39], the pIC50 is 6.68.

`Cc1cc(N2CCCc3cc(-c4cnn(C)c4)c(C(F)F)cc32)cc2c1n(C)c(=O)n2C` [Example 36, 6-(7-(difluoromethyl)-6-(1-methyl-1H-pyrazol-4-yl)-3,4-dihydroquinolin-1(2H)-yl)-1,3,4-trimethyl-1H-benzo[d]imidazol-2(3H)-one] gave a pIC50 of 5.86.

Molecule `CNC(=O)c1cn(C)c2c(C(C)C)cc(N3CCCc4cc(-c5cnn(C)c5)c(C(F)F)cc43)cc12` [Example 108, 5-(7-(difluoromethyl)-6-(1-methyl-1H-pyrazol-4-yl)-3,4-dihydroquinolin-1(2H)-yl)-7-isopropyl-N,1-dimethyl-1H-indole-3-carboxamide] had a pIC50 of 6.63.

As for `Cn1cc(-c2cc3c(cc2C(F)F)N(c2cc(Cl)c4c(c2)n(C)c(=O)n4C)CCC3)cn1` [Example 33, 4-chloro-6-(7-(difluoromethyl)-6-(1-methyl-1H-pyrazol-4-yl)-3,4-dihydroquinolin-1(2H)-yl)-1,3-dimethyl-1H-benzo[d]imidazol-2(3H)-one], the pIC50 is 5.93.

`Cc1c(N2CCCc3cc(-c4cnn(C)c4)c(C(F)F)cc32)ccc2c1n(C)c(=O)n2C` [Example 40] gave a pIC50 of 5.71.

On to `CNC(=O)c1c[nH]c2ccc(N3CCCc4cc(-c5cnn(C)c5)c(C(F)F)cc43)cc12` [Example 52, 5-(7-(difluoromethyl)-6-(1-methyl-1H-pyrazol-4-yl)-3,4-dihydroquinolin-1(2H)-yl)-N-methyl-1H-indole-3-carboxamide], for which the pIC50 is 5.66.

`C[C@H]1Nc2c(cccc2N2CCCc3cc(-c4cnn(C)c4)c(C(F)F)cc32)NC1=O` [Example 81, (R)-5-(7-(difluoromethyl)-6-(1-methyl-1H-pyrazol-4-yl)-3,4-dihydroquinolin-1(2H)-yl)-3-methyl-3,4-dihydroquinoxalin-2(1H)-one]: the pIC50 is 6.88.
